The values that follow come from PubChem BioAssay AID256 (DTP/NCI, 2004).

Values joined by “and” are separate entries in the source; they are usually repeats but may differ in a detail not shown here. Identical values can stand only once. Toxic doses and inconclusive results are not listed.

This experiment concerns CD2F1 mice, L1210 leukemia ip, survival T/C. Nature of the experiment: NCI In Vivo Anticancer Drug Screen. Data for tumor model L1210 Leukemia (intraperitoneal) in CD2F1 (CDF1) mice. Conditions: endpoint: mean survival time, higher = longer survival. The essentials:
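Antitumor effect is scored in animals hosting a serially transplanted tumor. Values compare compound-dosed animals against vehicle-only controls as a simple quotient.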

The mark [1] stands for this setting: dose: 25.0 mg/kg/injection, schedule: Q01DX009 (ip), vehicle: saline with Tween-80.
The mark [2] stands for this setting: dose: 50.0 mg/kg/injection, schedule: Q01DX009 (ip), vehicle: saline with Tween-80.
Where [3] appears, read: dose: 100.0 mg/kg/injection, schedule: Q04DX003 (ip), vehicle: saline with Tween-80.
The mark [4] stands for this setting: dose: 200.0 mg/kg/injection, schedule: Q04DX003 (ip), vehicle: saline with Tween-80.
Where [5] appears, read: dose: 400.0 mg/kg/injection, schedule: Q04DX003 (ip), vehicle: saline with Tween-80.
The mark [6] stands for this setting: dose: 12.5 mg/kg/injection, schedule: Q01DX009 (ip), vehicle: saline with Tween-80.
The mark [7] stands for this setting: dose: 75.0 mg/kg/injection, schedule: Q01DX001 (ip), vehicle: saline.
Setting [8] is: dose: 150.0 mg/kg/injection, schedule: Q01DX001 (ip), vehicle: saline.
Where [9] appears, read: dose: 100.0 mg/kg/injection, schedule: Q01DX009 (ip), vehicle: saline with Tween-80.
The mark [10] stands for this setting: dose: 200.0 mg/kg/injection, schedule: Q01DX009 (ip), vehicle: saline with Tween-80.
Where [11] appears, read: dose: 400.0 mg/kg/injection, schedule: Q01DX009 (ip), vehicle: saline with Tween-80.
The mark [12] stands for this setting: dose: 100.0 mg/kg/injection, schedule: Q04DX003 (ip), vehicle: Klucel (hydroxypropylcellulose) (HPC).
Setting [13] is: dose: 200.0 mg/kg/injection, schedule: Q04DX003 (ip), vehicle: Klucel (hydroxypropylcellulose) (HPC).
Setting [14] is: dose: 400.0 mg/kg/injection, schedule: Q04DX003 (ip), vehicle: Klucel (hydroxypropylcellulose) (HPC).

`CCCC(C#N)OC(=O)c1ccccc1` (stereo not given): the T/C runs as follows: under setting [1], 96 % of control; under setting [2], 104 % of control; under setting [3], 101 % of control.

For the compound `COC(=O)CCCCC(=O)OC`, the T/C by setting is: under setting [3], 96 % of control; under setting [4], 102 % of control; under setting [5], 102 % of control.

With `N#CC(C#N)=C(C#N)c1ccccc1`, the T/C under setting [6] was 96 % of control; the T/C under setting [1] was 98 % of control; the T/C (dose: 50.0 mg/kg/injection, schedule: Q01DX001 (ip), vehicle: saline with Tween-80) is 94 % of control; the T/C under setting [2] is 94 % of control.

For the compound `CC(=O)C(N=Nc1cccc2c1C(=O)c1ccccc1C2=O)C(=O)Nc1ccccc1C` (stereo not given), the T/C runs as follows: under setting [7], 98 % of control; under setting [8], 93 % of control; (dose: 300.0 mg/kg/injection, schedule: Q01DX001 (ip), vehicle: saline) 96 % of control.

As to `O=C1/C(=C(/c2ccccc2)N2CCOCC2)Cc2ccccc21`, the T/C was 90 % of control (dose: 6.25 mg/kg/injection, schedule: Q01DX009 (ip), vehicle: saline with Tween-80); 99 % of control (dose: 6.25 mg/kg/injection, schedule: Q04DX003 (ip), vehicle: saline with Tween-80); 97 % of control under setting [6]; 91 % of control (dose: 12.5 mg/kg/injection, schedule: Q04DX003 (ip), vehicle: saline with Tween-80); 92 % of control under setting [1]; 98 % of control (dose: 25.0 mg/kg/injection, schedule: Q04DX003 (ip), vehicle: saline with Tween-80).

Turning to `O=C(Nn1c(=O)c(=O)oc2ccccc21)C(F)(F)F`, the T/C under setting [3] was 96 % of control and the T/C under setting [4] is 94 % of control.

Regarding `COC(=O)/C(Br)=C/N(Cc1ccccc1)Cc1ccccc1`, the T/C was 101 % of control (dose: 100.0 mg/kg/injection, schedule: Q01DX009 (ip), vehicle: saline sonified); 94 % of control under setting [3]; 101 % of control (dose: 200.0 mg/kg/injection, schedule: Q01DX009 (ip), vehicle: saline sonified); 93 % of control under setting [4]; 103 % of control (dose: 400.0 mg/kg/injection, schedule: Q01DX009 (ip), vehicle: saline sonified); 96 % of control under setting [5].

Regarding `O=C(O)CSc1ccn(Cc2ccccc2)c1`, the T/C under setting [9] is 94 % of control; the T/C under setting [3] is 106 % of control; the T/C under setting [10] is 88 % of control; the T/C under setting [4] is 98 % of control; the T/C under setting [11] was 88 % of control; the T/C under setting [5] was 98 % of control.

With `Nc1nc(N)c2[nH]c(-c3ccccc3)nc2n1`, the T/C runs as follows: (dose: 6.25 mg/kg/injection, schedule: Q01DX005 (ip), vehicle: saline with Tween-80) 100 % of control; (dose: 12.5 mg/kg/injection, schedule: Q01DX005 (ip), vehicle: saline with Tween-80) 97 % of control; (dose: 25.0 mg/kg/injection, schedule: Q01DX005 (ip), vehicle: saline with Tween-80) 99 % of control; (dose: 50.0 mg/kg/injection, schedule: Q01DX005 (ip), vehicle: saline with Tween-80) 99 % of control.

With `S=P(N1CCOCC1)(N1CC1)N1CC1`, the T/C is, setting by setting: (dose: 10.0 mg/kg/injection, schedule: Q01DX007 (ip), vehicle: saline) 116 % of control; (dose: 10.0 mg/kg/injection, schedule: Q03DX003 (ip), vehicle: saline) 118 % of control; (dose: 10.0 mg/kg/injection, schedule: Q04DX003 (ip), vehicle: saline) 114 % of control; (dose: 12.5 mg/kg/injection, schedule: Q01DX Z (ip), vehicle: carboxymethylcellulose (CMC)) 118 % of control; (dose: 20.0 mg/kg/injection, schedule: Q01DX007 (ip), vehicle: saline) 172 % of control; (dose: 20.0 mg/kg/injection, schedule: Q01DX009 (ip), vehicle: saline) 171 % of control. In addition, the T/C (dose: 25.0 mg/kg/injection, schedule: Q01DX Z (ip), vehicle: carboxymethylcellulose (CMC)) is 100 % of control; the T/C (dose: 40.0 mg/kg/injection, schedule: Q01DX007 (ip), vehicle: saline) is 86 % of control; the T/C (dose: 40.0 mg/kg/injection, schedule: Q01DX009 (ip), vehicle: saline) is 100 % of control; the T/C (dose: 40.0 mg/kg/injection, schedule: Q03DX003 (ip), vehicle: saline) is 223 % of control; the T/C (dose: 40.0 mg/kg/injection, schedule: Q04DX003 (ip), vehicle: saline) is 218 % of control.

For `Nc1ccc2[nH]c(-c3ccc(S(=O)(=O)F)cc3)cc(=O)c2c1`, the T/C under setting [9] is 102 % of control, the T/C under setting [10] was 106 % of control and the T/C under setting [11] was 113 % of control.

Consider `NC(=O)C1=C2CCCc3cccc(c32)C1=O`, for which the T/C was 94 % of control under setting [9]; 99 % of control under setting [3]; 94 % of control under setting [10]; 100 % of control under setting [4]; 97 % of control under setting [11]; 87 % of control under setting [5].

In the case of `CCCCNCCC#N`, the T/C under setting [3] is 102 % of control, the T/C under setting [4] is 95 % of control and the T/C under setting [5] was 98 % of control.

`CCOC(=O)Nc1ccc2nnn(C3OC(CO)C(O)C3O)c2n1` (stereo not given): the T/C runs as follows: (dose: 12.5 mg/kg/injection, schedule: Q01DX005 (ip), vehicle: water) 94 % of control; (dose: 25.0 mg/kg/injection, schedule: Q01DX005 (ip), vehicle: water) 102 % of control; (dose: 50.0 mg/kg/injection, schedule: Q01DX005 (ip), vehicle: water) 98 % of control; (dose: 100.0 mg/kg/injection, schedule: Q01DX005 (ip), vehicle: water) 102 % of control; (dose: 200.0 mg/kg/injection, schedule: Q01DX005 (ip), vehicle: water) 94 % of control; (dose: 400.0 mg/kg/injection, schedule: Q01DX005 (ip), vehicle: water) 94 % of control.

In the case of `COc1ccc(-c2nc3ccccc3nc2-c2ccc(OC)cc2)cc1`, the T/C runs as follows: under setting [3], 94 % of control; under setting [4], 94 % of control.

As for `O=C1OC2CC1(O)CC(O)C2O` (stereo not given), the T/C (dose: 100.0 mg/kg/injection, schedule: Q01DX001 (ip), vehicle: saline with Tween-80) is 96 % of control and the T/C (dose: 200.0 mg/kg/injection, schedule: Q01DX001 (ip), vehicle: saline with Tween-80) is 89 % of control.

Turning to `Cc1c(NC(=O)Nc2cc([N+](=O)[O-])ccc2Cl)c(=O)n(-c2ccccc2)n1C`, the T/C by setting is: (dose: 100.0 mg/kg/injection, schedule: Q01DX001 (ip), vehicle: saline) 96 % of control; under setting [9], 89 % of control and 98 % of control; (dose: 100.0 mg/kg/injection, schedule: Q04DX002 (ip), vehicle: saline) 93 % of control and 107 % of control; under setting [3], 104 % of control; (dose: 200.0 mg/kg/injection, schedule: Q01DX001 (ip), vehicle: saline) 86 % of control; under setting [10], 96 % of control and 102 % of control. Moreover, the T/C was 95 % of control and 96 % of control (dose: 200.0 mg/kg/injection, schedule: Q04DX002 (ip), vehicle: saline); 104 % of control under setting [4]; 86 % of control (dose: 400.0 mg/kg/injection, schedule: Q01DX001 (ip), vehicle: saline); 96 % of control under setting [11]; 91 % of control and 107 % of control (dose: 400.0 mg/kg/injection, schedule: Q04DX002 (ip), vehicle: saline); 95 % of control under setting [5].

In the case of `Cc1ccc(C2(C(=O)O)CCCC2)cc1`, the T/C under setting [9] is 96 % of control; the T/C under setting [3] was 97 % of control; the T/C under setting [10] was 97 % of control; the T/C under setting [4] was 98 % of control; the T/C under setting [11] is 90 % of control; the T/C under setting [5] is 95 % of control.

With `Cc1[nH]c2ccc([N+](=O)[O-])cc2c1CN(C)C`, the T/C by setting is: under setting [7], 96 % of control; under setting [8], 100 % of control.

Take `COc1cccc(CCCC(=O)O)c1`: the T/C is 101 % of control under setting [12], 101 % of control under setting [13] and 101 % of control under setting [14].

For `O=C(Nc1ccc(N(CCCl)CCCl)cc1)c1ccccc1`, the T/C by setting is: under setting [12], 96 % of control; under setting [13], 101 % of control; under setting [14], 109 % of control.

For `CSC(=S)N(C)/N=C/c1ccccc1O`, the T/C reads like this: under setting [9], 97 % of control; under setting [3], 102 % of control; under setting [10], 93 % of control; under setting [4], 92 % of control; under setting [11], 92 % of control; under setting [5], 100 % of control.

For the compound `O=C(Nc1ccc(-c2cc(-c3ccccc3)on2)cc1)c1ccccc1`, the T/C is 90 % of control under setting [3], 88 % of control under setting [4] and 88 % of control under setting [5].
